In ChEMBL document CHEMBL5728812, “Inhibitors of Plasma Kallikrein and uses thereof” (2021):

Molecular target: Plasma kallikrein (Homo sapiens, UniProt P03952)
Test: Inhibitory Activity Assay: Plasma Kallikrein: The example compounds were evaluated for inhibition of the human activated kallikrein enzyme in two formats of an assay employing a fluorogenic peptide substrate. In one assay format, the concentrations of reagents were as follows: 20 mM Tris pH 7.5, 1 mM EDTA, 150 mM sodium chloride, 0.1% PEG-400, 0.1% Triton X-100, 500 pM activated kallikrein enzyme, 300 uM Pro-Phe-Arg-7-amido-4-methylcoumarin substrate. Prior to reaction initiation with substrate, enzyme and inhibitors were preincubated for 30 min at room temperature. After initiation with substrate, reactions were incubated for 10 min at room temperature and fluorescence emission at 460 nm from 380 nm excitation measured with a microplate reader. In another assay format, the concentrations of reagents were as follows: 20 mM Tris pH 7.5, 1 mM EDTA, 150 mM sodium chloride, 0.1% PEG-400, 0.1% Triton X-100, 5 pM activated kallikrein enzyme, 300 uM Pro-Phe-Arg-7-amido-4-methylcoumarin substrate. Prior to reaction initiation with substrate, enzyme and inhibitors were preincubated for 30 min at room temperature. After initiation with substrate, reactions were incubated for 18 hr at room temperature and fluorescence emission at 460 nm from 380 nm excitation measured with a microplate reader.

Sequence of Plasma kallikrein (P03952 20-390 limits assumed): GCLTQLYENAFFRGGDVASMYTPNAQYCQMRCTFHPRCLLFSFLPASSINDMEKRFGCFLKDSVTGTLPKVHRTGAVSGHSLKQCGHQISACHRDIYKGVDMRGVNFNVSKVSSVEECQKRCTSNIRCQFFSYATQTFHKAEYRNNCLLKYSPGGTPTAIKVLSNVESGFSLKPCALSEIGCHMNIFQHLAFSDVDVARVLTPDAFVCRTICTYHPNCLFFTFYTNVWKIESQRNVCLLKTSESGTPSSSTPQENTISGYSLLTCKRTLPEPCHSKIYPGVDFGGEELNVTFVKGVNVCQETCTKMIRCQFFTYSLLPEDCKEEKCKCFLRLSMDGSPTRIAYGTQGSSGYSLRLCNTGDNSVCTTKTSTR
Sequence of Plasma kallikrein (P03952 391-638 limits assumed): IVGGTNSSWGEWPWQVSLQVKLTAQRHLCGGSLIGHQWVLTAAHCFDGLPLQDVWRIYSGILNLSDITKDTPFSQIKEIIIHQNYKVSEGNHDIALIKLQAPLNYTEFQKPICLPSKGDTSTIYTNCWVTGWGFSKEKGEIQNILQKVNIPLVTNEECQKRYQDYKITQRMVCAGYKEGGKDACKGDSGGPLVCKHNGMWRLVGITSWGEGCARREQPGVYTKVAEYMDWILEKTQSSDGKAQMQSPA

Q: For CNC(=O)[C@H](CCCCNC(=N)N)NC(=O)c1csc([C@@H]2C[C@@H](N)CN2C(=O)c2ccc3cc(Cl)ccc3n2)n1, which EC50 is on record?
A: < 100 nM
